From patent US10550105B2 (Ribon Therapeutics Inc., priority 2018, dated 2020)

Each compound was assayed against PARP7 (Homo sapiens (Human), UniProt Q7Z3E1) (assay: Enzymatic assay for inhibition of PARP7: TR-FRET displacement of biotinylated Probe A from the TIPARP active site). Conditions: Table A-1.
Type: binding
Procedure, shortened: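 Titrated compounds compete with the biotinylated probe; after an additional 30 min incubation at 25° C, time-delayed fluorescence (90 μs) is measured. Inhibition curves use a Hill coefficient that normally floats but may be held at 1.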

PARP7, sequence (Q7Z3E1 whole entry): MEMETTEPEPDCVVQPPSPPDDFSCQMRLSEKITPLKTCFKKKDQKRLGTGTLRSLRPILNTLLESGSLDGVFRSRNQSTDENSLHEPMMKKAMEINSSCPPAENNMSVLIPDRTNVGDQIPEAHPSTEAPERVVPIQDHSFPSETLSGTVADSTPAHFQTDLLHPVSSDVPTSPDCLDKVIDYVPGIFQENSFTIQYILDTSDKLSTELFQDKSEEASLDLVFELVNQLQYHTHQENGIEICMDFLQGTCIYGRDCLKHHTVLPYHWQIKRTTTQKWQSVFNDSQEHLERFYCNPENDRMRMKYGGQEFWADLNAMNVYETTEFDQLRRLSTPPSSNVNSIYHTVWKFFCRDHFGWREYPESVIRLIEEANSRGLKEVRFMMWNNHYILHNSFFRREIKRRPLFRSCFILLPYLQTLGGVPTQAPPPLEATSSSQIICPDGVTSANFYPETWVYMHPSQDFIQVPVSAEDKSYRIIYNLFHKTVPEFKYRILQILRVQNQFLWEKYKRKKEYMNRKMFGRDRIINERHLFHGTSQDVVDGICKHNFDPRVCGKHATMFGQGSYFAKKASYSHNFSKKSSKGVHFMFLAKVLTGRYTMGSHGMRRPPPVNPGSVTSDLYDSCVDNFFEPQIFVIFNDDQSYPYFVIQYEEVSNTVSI

| SMILES | IC50 [nM] |
| --- | --- |
| C[C@@H](COCCCC(=O)N1CCN(c2ncc(C(F)(F)F)cn2)CC1)Nc1cn[nH]c(=O)c1C(F)(F)F [Example 634, (S)-5-((1-(4-Oxo-4-(4-(5-(trifluoromethyl)pyrimidin-2-yl)piperazin-1-yl)butoxy)propan-2-yl)amino)-4-(trifluoromethyl)pyridazin-3(2H)-one] | < 100 |
| O=C(C[C@@H]1CC[C@H](CNc2cn[nH]c(=O)c2C(F)(F)F)O1)N1CCN(c2ccc(C(F)(F)F)cn2)CC1 (single isomer, unassigned) [Example 546 Isomer D] | < 100 |
| C[C@@H](COCCC(=O)N1CCN(c2ccc(C#N)cn2)CC1)Sc1cn[nH]c(=O)c1C(F)(F)F [Example 655, (S)-6-(4-(3-(2-((6-Oxo-5-(trifluoromethyl)-1,6-dihydropyridazin-4-yl)thio)propoxy)propanoyl)piperazin-1-yl)nicotinonitrile] | < 100 |
| C[C@H](COC[C@@H]1CCCN1c1cn[nH]c(=O)c1C(F)(F)F)CC(=O)N1CCN(c2ccc(C#N)cn2)CC1 [Example 128B] | < 100 |
| N#Cc1ccc(N2CCN(C(=O)c3cncc(OCC4c5ccccc5CN4c4cn[nH]c(=O)c4C(F)(F)F)c3)CC2)nc1 (stereo not drawn) [Example 352, 6-(4-(5-((2-(6-Oxo-5-(trifluoromethyl)-1,6-dihydropyridazin-4-yl)isoindolin-1-yl)methoxy)nicotinoyl)piperazin-1-yl)nicotinonitrile] | < 100 |
| CCC1c2ccccc2CN1c1cn[nH]c(=O)c1C(F)(F)F (stereo not drawn) [Example 310, 5-(1-Ethylisoindolin-2-yl)-4-(trifluoromethyl)pyridazin-3(2H)-one] | ≥ 1000 |
| Cc1cnc(N2CCN(C(=O)CCOC[C@H](C)Oc3cn[nH]c(=O)c3C(F)(F)F)CC2)nc1 [Example 687, (S)-5-((1-(3-(4-(5-Methylpyrimidin-2-yl)piperazin-1-yl)-3-oxopropoxy)propan-2-yl)oxy)-4-(trifluoromethyl)pyridazin-3(2H)-one] | < 100 |
| N#Cc1ccc(N2CCN(C(=O)CCCOCCOc3cn[nH]c(=O)c3C(F)(F)F)CC2)nc1 [Example 525, 6-[4-[4-(2-[[6-Oxo-5-(trifluoromethyl)-1,6-dihydropyridazin-4-yl]oxy]ethoxy)butanoyl]piperazin-1-yl]pyridine-3-carbonitrile] | < 100 |
| N#Cc1ccc(N2CCN(C(=O)C[C@@H]3CCC[C@@H](COc4cn[nH]c(=O)c4C(F)(F)F)O3)CC2)nc1 (single isomer, unassigned) [Example 583 Isomer A] | < 100 |
| N#Cc1ccc(N2CCN(C(=O)c3ccnc(OC[C@H]4c5ccccc5CN4c4cn[nH]c(=O)c4C(F)(F)F)n3)CC2)nc1 [Example 38 Isomer B, 6-[4-[(2-[[(1R)-2-[6-Oxo-5-(trifluoromethyl)-1,6-dihydropyridazin-4-yl]-2,3-dihydro-1H-isoindol-1-yl]methoxy]pyrimidin-4-yl)carbonyl]piperazin-1-yl]pyridine-3-carbonitrile] | < 100 |
| O=C(COC[C@@H]1CCCN1c1cn[nH]c(=O)c1C(F)(F)F)NC1CCC(Oc2ccccn2)CC1 (stereo partly drawn) [Example 83, 2-[[(2S)-1-[6-oxo-5-(trifluoromethyl)-1,6-dihydropyridazin-4-yl]pyrrolidin-2-yl]methoxy]-N-[4-(pyridin-2-yloxy)cyclohexyl]acetamide] | 100 to 1000 |
| N#Cc1ccc(N2CCN(C(=O)[C@H]3C[C@@H](OC[C@H]4CCN(c5cn[nH]c(=O)c5C(F)(F)F)C4)C3)CC2)nc1 [Example 121B, 6-(4-((1S,3S)-3-((1-(6-oxo-5-(trifluoromethyl)-1,6-dihydropyridazin-4-yl)pyrrolidin-3-yl)methoxy)cyclobutanecarbonyl)piperazin-1-yl)nicotinonitrile] | < 100 |
| CC[C@@H](COCCC(=O)N1CCN(c2ccc(C#N)cn2)CC1)Oc1cn[nH]c(=O)c1C(F)(F)F [Example 589, 6-(4-[3-[(2S)-2-[[6-Oxo-5-(trifluoromethyl)-1,6-dihydropyridazin-4-yl]oxy]butoxy]propanoyl]piperazin-1-yl)pyridine-3-carbonitrile] | < 100 |

Results, then the compound that gave them:

| IC50 [nM] | SMILES |
| --- | --- |
| ≥ 1000 | CN1CCC(Oc2cccc3c2CN(c2cn[nH]c(=O)c2Cl)C3)CC1 [Example 257, 4-Chloro-5-(4-((1-methylpiperidin-4-yl)oxy)isoindolin-2-yl)pyridazin-3(2H)-one] |
| ≥ 1000 | Cc1c(N2Cc3ccccc3C2)cn[nH]c1=O [Example 159, 5-(Isoindolin-2-yl)-4-methylpyridazin-3(2H)-one] |
| < 100 | N#Cc1ccc(N2CCN(C(=O)c3cccc(OC[C@@H]4CCCN4c4cn[nH]c(=O)c4C(F)(F)F)c3)CC2=O)nc1 [Example 34, 6-[2-oxo-4-[(3-[[(2S)-1-[6-oxo-5-(trifluoromethyl)-1,6-dihydropyridazin-4-yl]pyrrolidin-2-yl]methoxy]phenyl)carbonyl]piperazin-1-yl]pyridine-3-carbonitrile] |
| < 100 | N#Cc1ccc(N2CCN(C(=O)CNCC[C@@H]3c4ccccc4CN3c3cn[nH]c(=O)c3C(F)(F)F)CC2)nc1 [Example 144A, 6-[4-[2-([2-[(1R)-2-[6-oxo-5-(trifluoromethyl)-1,6-dihydropyridazin-4-yl]-2,3-dihydro-1H-isoindol-1-yl]ethyl]amino)acetyl]piperazin-1-yl]pyridine-3-carbonitrile] |
| < 100 | O=C(CCOCCNc1cn[nH]c(=O)c1C(F)(F)F)N1CCN(c2ccc(C(F)(F)F)cn2)CC1 [Example 504, 5-[[2-(3-Oxo-3-[4-[5-(Trifluoromethyl)pyridin-2-yl]piperazin-1-yl]propoxy)ethyl]amino]-4-(trifluoromethyl)-2,3-dihydropyridazin-3-one] |
| < 100 | O=C(CCOC[C@@H]1CCCN1c1cn[nH]c(=O)c1C(F)(F)F)N1CCN(c2ccc(Cl)cn2)CC1 [Example 481, (S)-5-(2-((3-(4-(5-Chloropyridin-2-yl)piperazin-1-yl)-3-oxopropoxy)methyl)pyrrolidin-1-yl)-4-(trifluoromethyl)pyridazin-3(2H)-one] |
| 100 to 1000 | C[C@H](COc1cn[nH]c(=O)c1C(F)(F)F)OCCC(=O)N1CCN(c2ncc(C(F)(F)F)cn2)CC1 (single isomer, unassigned) [Example 544 Isomer D] |
| ≥ 1000 | O=C(c1cccc(OC[C@H]2c3ccccc3CN2c2cn[nH]c(=O)c2C(F)(F)F)c1)N1CCn2c(nnc2C(F)(F)F)C1 [Example 372, (R)-4-(Trifluoromethyl)-5-(1-((3-(3-(trifluoromethyl)-5,6,7,8-tetrahydro-[1,2,4]triazolo[4,3-a]pyrazine-7-carbonyl)phenoxy)methyl)isoindolin-2-yl)pyridazin-3(2H)-one] |
| < 100 | C[C@@H](COc1cn[nH]c(=O)c1Cl)OCCC(=O)N1CCN(c2ncc(Cl)cn2)CC1 (single isomer, unassigned) [Example 577 Isomer B] |
| ≥ 1000 | CNCc1cccc2c1CN(c1cn[nH]c(=O)c1C(F)(F)F)C2 [Example 262, 5-(4-((Methylamino)methyl)isoindolin-2-yl)-4-(trifluoromethyl)pyridazin-3(2H)-one] |
| < 100 | CN1CCN(CCOc2cccc3c2CN(c2cn[nH]c(=O)c2C(F)(F)F)C3)CC1 [Example 226, 5-(4-(2-(4-Methylpiperazin-1-yl)ethoxy)isoindolin-2-yl)-4-(trifluoromethyl)pyridazin-3(2H)-one] |
